Experimental data reported in ChEMBL document CHEMBL6127007, “Development of visible-light-activatable photocaged PROTACs” (Eur J Med Chem, 2024).
The source made the active and inactive calls. The rule behind the calls is not given here.

How the values were obtained:
[1] = biological target: T1, Protein cereblon/Bromodomain-containing protein 4 (Homo sapiens, UniProt O60885+Q96SW2); assay: Photocaged-PROTAC activity at CRBN/BRD4 in human Ramos cells assessed as reduction in Brd4 protein level at 0.03 to 10 uM pre-incubated for 2 hrs under dark followed by UV light irradiation at 3 mW/cm^2 for 3 mins and measured after 12 hrs by Western blot analysis; assay type: cell-based; details: dose 0.03-10 µM, time 14.0 hrs
T1 sequence (Q96SW2 whole entry, looked up, other chains not shown): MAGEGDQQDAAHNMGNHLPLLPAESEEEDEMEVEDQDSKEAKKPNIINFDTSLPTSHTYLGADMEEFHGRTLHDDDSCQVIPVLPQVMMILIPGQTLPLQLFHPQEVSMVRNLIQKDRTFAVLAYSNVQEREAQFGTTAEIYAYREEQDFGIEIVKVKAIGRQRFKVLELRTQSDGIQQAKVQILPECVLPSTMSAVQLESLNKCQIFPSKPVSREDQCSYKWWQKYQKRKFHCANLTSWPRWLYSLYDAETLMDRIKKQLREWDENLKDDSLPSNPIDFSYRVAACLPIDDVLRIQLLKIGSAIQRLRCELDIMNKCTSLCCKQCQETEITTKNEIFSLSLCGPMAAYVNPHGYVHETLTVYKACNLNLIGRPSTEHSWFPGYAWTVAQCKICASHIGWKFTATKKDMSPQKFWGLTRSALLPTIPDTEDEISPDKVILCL

[2] = biological target: T1, Protein cereblon/Bromodomain-containing protein 4; assay: Photocaged-PROTAC activity at CRBN/BRD4 in human Ramos cells assessed as […] Brd4 protein degradation under dark condition pre-incubated for 12 hrs by Western blot analysis; assay type: cell-based
[3] = biological target: T1, Protein cereblon/Bromodomain-containing protein 4; assay: Photocaged-PROTAC activity at CRBN/BRD4 in human Ramos cells assessed as […] Brd4 protein degradation pre-incubated for 2 hrs followed by UV light irradiation at 365 nM for 3 mins and measured after 12 hrs by Western blot analysis; assay type: cell-based
[4] = Photoactivation of the Photocaged-PROTAC assessed as uncaging rate measuring dBET1 release under visible light measured at 1 min by HPLC analysis
[5] = biological target: T1, Protein cereblon/Bromodomain-containing protein 4; assay: Photocaged-PROTAC activity at CRBN/BRD4 in human Ramos cells assessed as Brd4 protein degradation at 0.03 to 10 uM pre-incubated for 2 hrs under dark followed by 365 nm UV light irradiation for 3 mins and measured after 12 hrs by Western blot analysis; assay type: cell-based; details: dose 0.03-10 µM
[6] = biological target: T1, Protein cereblon/Bromodomain-containing protein 4; assay: Photocaged-PROTAC activity at CRBN/BRD4 in human Ramos cells assessed as Brd4 protein degradation at 10000 nM incubated for 12 hrs under dark by Western blot analysis; assay type: cell-based
[7] = biological target: T1, Protein cereblon/Bromodomain-containing protein 4; assay: Photocaged-PROTAC activity at CRBN/BRD4 in human Ramos cells assessed as Brd4 protein degradation at 30 nM pre-incubated for 2 hrs under dark followed by 365 nm UV light irradiation for 3 mins and measured after 12 hrs by Western blot analysis; assay type: cell-based; details: time 14.0 hrs
[8] = biological target: T1, Protein cereblon/Bromodomain-containing protein 4; assay: Photocaged-PROTAC activity at CRBN/BRD4 in human Ramos cells assessed as Brd4 protein degradation at 0.03 to 10 uM incubated for 12 hrs under dark by Western blot analysis; assay type: cell-based; details: dose 0.03-10 µM
[9] = biological target: T1, Protein cereblon/Bromodomain-containing protein 4; assay: Photocaged-PROTAC activity at CRBN/BRD4 in human Ramos cells assessed as reduction in Brd4 protein level at 0.03 to 10 uM incubated for 12 hrs under dark by Western blot analysis; assay type: cell-based; details: dose 0.03-10 µM
[10] = biological target: T1, Protein cereblon/Bromodomain-containing protein 4; assay: Photocaged-PROTAC activity at CRBN/BRD4 in human Ramos cells assessed as reduction in Brd4 protein level at 0.03 to 10 uM pre-incubated for 2 hrs followed by visible light irradiation at 405 nm for 3 mins and measured after 12 hrs by Western blot analysis; assay type: cell-based; details: dose 0.03-10 µM, time 14.0 hrs
NAMALVA [11] = assay: Antiproliferative activity against human NAMALVA cells assessed as reduction in cell viability upto 10 uM measured after 72 hrs by CellTiter-Glo luminescent assay; assay type: functional, cell-based
NAMALVA [12] = assay: Antiproliferative activity against human NAMALVA cells assessed as reduction in cell viability pre-incubated for 2 hrs under dark followed by visible light irradiation for 3 mins at 405 nm and measured after 72 hrs under dark condition by CellTiter-Glo luminescent assay; assay type: functional, cell-based; details: light or radiation study
NAMALVA [13] = assay: Antiproliferative activity against human NAMALVA cells assessed as reduction in cell viability upto 10 uM measured after 72 hrs under dark condition by CellTiter-Glo luminescent assay; assay type: functional, cell-based
[14] = biological target: T1, Protein cereblon/Bromodomain-containing protein 4; assay: Photocaged-PROTAC activity at CRBN/BRD4 in human Ramos cells assessed as […] Brd4 protein degradation pre-incubated for 2 hrs followed by visible light irradiation at 405 nM for 3 mins and measured after 12 hrs by Western blot analysis; assay type: cell-based
[15] = biological target: T1, Protein cereblon/Bromodomain-containing protein 4; assay: Photocaged-PROTAC activity at CRBN/BRD4 in human Ramos cells assessed as Brd4 protein degradation upto 3 uM pre-incubated for 2 hrs under dark followed by 365 nm UV light irradiation for 3 mins and measured after 12 hrs by Western blot analysis; assay type: cell-based; details: time 14.0 hrs

Row | DC50 [2] | DC50 [3] | Activity [4] | DC50 [14] | Compound | IC50 (NAMALVA [12]) | IC50 (NAMALVA [13]) | other results
1 | > 10000 nM | 1980 nM |  |  | CCN(Cc1cc(OC)c(OC)cc1[N+](=O)[O-])C(=O)c1sc2c(c1C)C(c1ccc(Cl)cc1)=N[C@@H](CC(=O)NCCCCNC(=O)COc1cccc3c1C(=O)N(C1CCC(=O)NC1=O)C3=O)c1nnc(C)n1-2 (some centres not stated) |  |  | Activity [1]: Active
2 | > 10000 nM | < 30 nM | Active |  | COc1cc(CN(Cc2ccc(-c3scnc3C)cc2)C(=O)[C@@H]2C[C@@H](O)CN2C(=O)[C@@H](NC(=O)COCCOCCOCCOC(=O)C[C@@H]2N=C(c3ccc(Cl)cc3)c3c(sc(C)c3C)-n3c(C)nnc32)C(C)(C)C)c([N+](=O)[O-])cc1OC |  |  | Activity [5]: Active; Activity [6]: inactive; Activity [7]: Active
3 | > 10000 nM | > 10000 nM |  |  | COc1cc(CN(C(=O)COCCOCCOCCOC(=O)C[C@@H]2N=C(c3ccc(Cl)cc3)c3c(sc(C)c3C)-n3c(C)nnc32)[C@H](C(=O)N2C[C@H](O)C[C@H]2C(=O)NCc2ccc(-c3scnc3C)cc2)C(C)(C)C)c([N+](=O)[O-])cc1OC |  |  | Activity [5]: inactive; Activity [8]: inactive
4 | > 10000 nM | 148 nM |  |  | COc1cc(CON2C(=O)CCC(N3C(=O)c4cccc(OCC(=O)NCCCCNC(=O)C[C@@H]5N=C(c6ccc(Cl)cc6)c6c(sc(C)c6C)-n6c(C)nnc65)c4C3=O)C2=O)c([N+](=O)[O-])cc1OC (some centres not stated) |  |  | Activity [1]: Active; Activity [9]: inactive
5 |  |  |  |  | CCNC(=O)c1sc2c(c1C)C(c1ccc(Cl)cc1)=N[C@@H](CC(=O)NCCCCNC(=O)COc1cccc3c1C(=O)N(C1CCC(=O)NC1=O)C3=O)c1nnc(C)n1-2 (some centres not stated) |  |  | Activity [1]: Active
6 |  |  | Active | 62 nM | Cc1sc2c(c1C)C(c1ccc(Cl)cc1)=N[C@@H](CC(=O)N(CCCCNC(=O)COc1cccc3c1C(=O)N(C1CCC(=O)NC1=O)C3=O)Cc1cc3c(cc1[N+](=O)[O-])oc1cc(N(C)C)ccc13)c1nnc(C)n1-2 (some centres not stated) | 476 nM | > 10000 nM | Activity [10]: Active; Activity (NAMALVA [11]): inactive
7 |  |  | Active | 108 nM | Cc1sc2c(c1C)C(c1ccc(Cl)cc1)=N[C@@H](CC(=O)NCCCCNC(=O)COc1cccc3c1C(=O)N(C1CCC(=O)N(OCc4cc5oc6ccccc6c5cc4[N+](=O)[O-])C1=O)C3=O)c1nnc(C)n1-2 (some centres not stated) | 741 nM | > 2350 nM | Activity [10]: Active
8 |  |  |  |  | Cc1sc2c(c1C)C(c1ccc(Cl)cc1)=N[C@@H](CC(=O)NCCCCNC(=O)COc1cccc3c1C(=O)N(C1CCC(=O)NC1=O)C3=O)c1nnc(C)n1-2 (some centres not stated) | 317 nM |  | 
9 | > 10000 nM | 2310 nM |  |  | COc1cc(CN2C(=O)CCC(N3C(=O)c4cccc(OCC(=O)NCCCCNC(=O)C[C@@H]5N=C(c6ccc(Cl)cc6)c6c(sc(C)c6C)-n6c(C)nnc65)c4C3=O)C2=O)c([N+](=O)[O-])cc1OC (some centres not stated) |  |  | Activity [9]: inactive
10 | 59 nM | 55 nM |  |  | COc1cc(CN(CCCCNC(=O)C[C@@H]2N=C(c3ccc(Cl)cc3)c3c(sc(C)c3C)-n3c(C)nnc32)C(=O)COc2cccc3c2C(=O)N(C2CCC(=O)NC2=O)C3=O)c([N+](=O)[O-])cc1OC (some centres not stated) |  |  | Activity [9]: Active
11 |  |  | Active | 65 nM | Cc1sc2c(c1C)C(c1ccc(Cl)cc1)=N[C@@H](CC(=O)N(CCCCNC(=O)COc1cccc3c1C(=O)N(C1CCC(=O)NC1=O)C3=O)C(C)c1cc3c(cc1[N+](=O)[O-])oc1ccccc13)c1nnc(C)n1-2 (some centres not stated) | 291 nM | > 10000 nM | Activity [10]: Active; Activity (NAMALVA [11]): inactive
12 |  |  |  | < 30 nM | Cc1ncsc1-c1ccc(CN(Cc2cc3c(cc2[N+](=O)[O-])oc2ccccc23)C(=O)[C@@H]2C[C@@H](O)CN2C(=O)[C@@H](NC(=O)COCCOCCOCCOC(=O)C[C@@H]2N=C(c3ccc(Cl)cc3)c3c(sc(C)c3C)-n3c(C)nnc32)C(C)(C)C)cc1 | 140 nM | 1170 nM | Activity [15]: Active
13 |  |  | Active | 32 nM | Cc1sc2c(c1C)C(c1ccc(Cl)cc1)=N[C@@H](CC(=O)N(CCCCNC(=O)COc1cccc3c1C(=O)N(C1CCC(=O)NC1=O)C3=O)Cc1cc3oc4ccccc4c3cc1[N+](=O)[O-])c1nnc(C)n1-2 (some centres not stated) | 287 nM | > 10000 nM | Activity [10]: Active; Activity (NAMALVA [11]): inactive
14 | < 30 nM | < 30 nM | Active |  | COc1cc(COC(=O)O[C@@H]2C[C@@H](C(=O)NCc3ccc(-c4scnc4C)cc3)N(C(=O)[C@@H](NC(=O)COCCOCCOCCOC(=O)C[C@@H]3N=C(c4ccc(Cl)cc4)c4c(sc(C)c4C)-n4c(C)nnc43)C(C)(C)C)C2)c([N+](=O)[O-])cc1OC |  |  | Activity [5]: Active
15 |  |  |  |  | Cc1ncsc1-c1ccc(CNC(=O)[C@@H]2C[C@@H](O)CN2C(=O)[C@@H](NC(=O)COCCOCCOCCNC(=O)C[C@@H]2N=C(c3ccc(Cl)cc3)c3c(sc(C)c3C)-n3c(C)nnc32)C(C)(C)C)cc1 | 170 nM |  | 
